Results as given in ChEMBL document CHEMBL3091428, “Synthesis and initial biological evaluation of substituted 1-phenylamino-2-thio-4,5-dimethyl-1H-imidazole derivatives” (Bioorg Med Chem Lett, 2013).
≈ marks a conversion by molar mass, not a printed value.

How the values were obtained:
[1] = Cytotoxicity against human OVCAR4 cells assessed as cell growth after 48 hrs by SRB assay relative to control; type: functional, OVCAR-4
[2] = tested on: OVCAR-3; assay: Cytotoxicity against human OVCAR3 cells assessed as cell growth after 48 hrs by SRB assay relative to control; type: functional
[3] = tested on: U-251; assay: Cytotoxicity against human U251 cells assessed as cell growth after 48 hrs by SRB assay relative to control; type: functional
[4] = Cytotoxicity against human UO31 cells assessed as cell growth after 48 hrs by SRB assay relative to control; type: functional, UO-31
[5] = tested on: A549; assay: Cytotoxicity against human A549 cells assessed as cell growth after 48 hrs by SRB assay relative to control; type: functional
[6] = tested on: NCI-H522; assay: Cytotoxicity against human NCI-H522 cells assessed as cell growth after 48 hrs by SRB assay relative to control; type: functional
[7] = tested on: SW-620; assay: Cytotoxicity against human SW620 cells assessed as cell growth after 48 hrs by SRB assay relative to control; type: functional
[8] = tested on: SN12C; assay: Cytotoxicity against human SN12C cells assessed as cell growth after 48 hrs by SRB assay relative to control; type: functional
[9] = tested on: T47D; assay: Cytotoxicity against human T47D cells assessed as cell growth after 48 hrs by SRB assay relative to control; type: functional
[10] = tested on: HCT-15; assay: Cytotoxicity against human HCT15 cells assessed as cell growth after 48 hrs by SRB assay relative to control; type: functional
[11] = tested on: NCI-H322M; assay: Cytotoxicity against human NCI-H322M cells assessed as cell growth after 48 hrs by SRB assay relative to control; type: functional
[12] = Cytotoxicity against human Hs578T cells assessed as cell growth after 48 hrs by SRB assay relative to control; type: functional, Hs-578T
[13] = tested on: SF-268; assay: Cytotoxicity against human SF268 cells assessed as cell growth after 48 hrs by SRB assay relative to control; type: functional
[14] = tested on: LOX IMVI; assay: Cytotoxicity against human LOXIMVI cells assessed as cell growth after 48 hrs by SRB assay relative to control; type: functional
[15] = tested on: SF-295; assay: Cytotoxicity against human SF295 cells assessed as cell growth after 48 hrs by SRB assay relative to control; type: functional
[16] = tested on: Malme-3M; assay: Cytotoxicity against human MALME-3M cells assessed as cell growth after 48 hrs by SRB assay relative to control; type: functional
[17] = tested on: Pichia kudriavzevii; assay: Antimicrobial activity against Candida krusei ATCC 6258 after 24 hrs by broth microdilution method; type: functional; conditions: ATCC 6258, 24 h
[18] = Cytotoxicity against human UACC257 cells assessed as cell growth after 48 hrs by SRB assay relative to control; type: functional, UACC-257
[19] = tested on: Enterococcus faecalis; assay: Antimicrobial activity against Enterococcus faecalis ATCC 51299 after 24 hrs by broth microdilution method; type: functional; conditions: ATCC 51299, 24 h
[20] = tested on: ACHN; assay: Cytotoxicity against human ACHN cells assessed as cell growth after 48 hrs by SRB assay relative to control; type: functional
[21] = tested on: MDA-MB-435; assay: Cytotoxicity against human MDA-MB-435 cells assessed as cell growth after 48 hrs by SRB assay relative to control; type: functional
[22] = tested on: Artemia salina; assay: Toxicity in brine shrimp larvae assessed as mortality at 100 ug/ml after 24 hrs; type: organism-based; conditions: in vivo
[23] = Toxicity in brine shrimp larvae assessed as mortality after 24 hrs; type: organism-based; conditions: artemia salina, in vivo
[24] = tested on: Artemia salina; assay: Toxicity in brine shrimp larvae assessed as mortality at 50 ug/ml after 24 hrs; type: organism-based; conditions: in vivo

Row | SMILES | Activity [1] [%] | Activity [2] [%] | Activity [3] [%] | Activity [4] [%] | Activity [5] [%] | Activity [6] [%] | Activity [7] [%] | Activity [8] [%] | Activity [9] [%] | Activity [10] [%] | Activity [11] [%] | Activity [12] [%] | Activity [13] [%] | Activity [14] [%] | Activity [15] [%] | Activity [16] [%] | MIC [17] [µg/mL] | Activity [18] [%] | MIC [19] [µg/mL] | Activity [20] [%] | other results
1 | Cc1nc(SCC(=O)c2ccc(Cl)cc2)n(Nc2ccccc2)c1C | 93.89 | 108.6 | 90.68 | 66.15 | 86.67 | 79.92 | 108.9 | 93.18 | 79.51 | 92.65 | 88.63 | 96.61 | 103.9 | 101.4 | 89.88 | 97.11 | 200 (≈ 538 µM) | 97.88 | 400 (≈ 1080 µM) | 102.7 | Activity [21]: 99.36%
2 | COc1ccc(C(=O)CSc2nc(C)c(C)n2Nc2ccccc2)cc1 | 92.83 | 101.3 | 93.77 | 69.91 | 97.35 | 77.18 | 105.7 | 98.88 | 71.62 | 88.63 | 82.37 | 107.2 | 104.5 | 104.8 | 90.39 | 101.4 | 800 (≈ 2180 µM) | 99.75 | 800 (≈ 2180 µM) | 99.05 | Activity [21]: 95.25%
3 | Cc1nc(SCC(=O)c2ccccc2)n(Nc2ccccc2)c1C | 105.2 | 109.4 | 97.26 | 68.6 | 99.16 | 81.35 | 109.1 | 99.9 | 85.54 | 99.3 | 90.31 | 108 | 101.9 | 102.1 | 86.98 | 103.5 | 400 (≈ 1190 µM) | 97.59 | 800 (≈ 2370 µM) | 106.6 | Activity [22]: Non-toxic; LC50 at 24 h [23]: > 1600 µg/mL; Activity [21]: 97.36%; Activity [24]: Non-toxic
